# Results as given in patent US5559209A, “Regulator regions of G proteins” (The General Hospital Corporation, priority 1993, dated 1996).
# Where no end group is shown, it is not given here.
# Legend:
# Format in all cases: biochemical, bovine
# [1] = molecular target: T1, Gi2 (Bos taurus, UniProt A7MBH9); assay: GTPγS binding, TrM-peptide 14-induced Gi2 activation in phospholipid vesicles; settings: 0.3 nM Gi2 in phospholipid vesicles, 100 nM TrM-peptide 14; read-out: IC50, inhibition of TrM-peptide 14 stimulation of Gi2
# T1 construct: trimeric Gi2 (i.e., Gi2 αβγ) purified from bovine brain to near homogeneity; from tissue; host or cells: bovine brain
# Method: (§1) Materials and Methods The in vitro assays described below utilize the couplone portion of each of a number of G-coupled receptors, instead of an intact receptor molecule, as a means for activating the corresponding anticouplone or intact G-protein. […]
# (§2) GTPγS binding Assay--GTPγS binding to G proteins was assayed at 37° C. in 20 mM Hepes/NaOH buffer (pH 7.4) containing 130 μM MgCl2, 110 μM EDTA and 60 nM [^35 S]GTPγS, as described previously (Okamoto et al., 1990). […] The total amount of G protein was measured as maximal GTPγS binding at room temperature, as described (Okamoto et al., Cell 67:723-730, 1991a). […] Thus, the apparent first-order rate constant for GTPγS binding (kapp), which is equal to the slope of the tangent to the GTPγS binding curve at time 0 and represents the actual GTPγS binding rate, was calculated from this equation.
# Transmembrane domain-connected peptide 14 ["TrM-peptide 14"; […] […] In one of the experiments shown in FIG. 1B, 0.3 nM Gi2 reconstituted in phospholipid vesicles with 100 nM TrM-peptide 14 was exposed to various concentrations of ACGi2, and GTPγS binding was measured (.diamond-solid.). […]
# [2] = molecular target: T1, Gi2; assay: GTPγS binding assay, peptide 14-induced Gi2 activation
# Method: Materials and Methods The in vitro assays described below utilize the couplone portion of each of a number of G-coupled receptors, instead of an intact receptor molecule, as a means for activating the corresponding anticouplone or intact G-protein. Except as noted below, Gi2 used in this study was trimeric Gi2 (i.e., Gi2 αβγ) purified from bovine brain to near homogeneity (Katada et al., FEBS Lett. 213:353-358 (1987), stored in buffer A (20 mM hepes/NaOH (pH 7.4), 1 mM EDTA, and 0.7% CHAPS), and diluted≥10 fold for assays. The Gi2 used for the reconstitution experiment was trimeric Gi2 purified from bovine spleen to homogeneity and dissolved in buffer B (Morishita et al., 1989). Gi3 α (Morishita et al., Biochem. Biophys. Res. Commun. 172:249-255 (1990), was purified from bovine spleen and used in combination with 1.5-fold concentrated Gβγ (Katada et al., 1987). This preparation of Gi3 α was 10-20% contaminated by Gi1 α, but not by other G proteins. Trimeric Gs and Gβγ purified from bovine brain to near homogeneity (Katada et al., 1987) were also stored in buffer A.
# GTPγS binding Assay--GTPγS binding to G proteins was assayed at 37° C. in 20 mM Hepes/NaOH buffer (pH 7.4) containing 130 μM MgCl2, 110 μM EDTA and 60 nM [^35 S]GTPγS, as described previously (Okamoto et al., 1990). GTPγS binding to polypeptides was negligible. The total amount of G protein was measured as maximal GTPγS binding at room temperature, as described (Okamoto et al., Cell 67:723-730, 1991a). [^35 S]GTPγS was purchased from DuPont-New England Nuclear. Binding of GTPγS to G proteins obeyed first-order kinetics according to the equation ln[(BT-B)/BT]=-kapp t, where B is the binding at time t and BT is the total binding observable at an infinite time. Thus, the apparent first-order rate constant for GTPγS binding (kapp), which is equal to the slope of the tangent to the GTPγS binding curve at time 0 and represents the actual GTPγS binding rate, was calculated from this equation.
# In the experiment illustrated in FIG. 1A, 10 nM Gi2 was incubated with 30 μM peptide 14 (RVGLVRGEKARKGK; SEQ ID NO: 27), the couplone portion of the IGF-II receptor, in the presence of various concentrations of (.quadrature.) ACGi2 (DAVTDVIIKNNLKDC; SEQ ID NO: 3), (567 ) the control Gi2 α Glu297-Asp310 peptide (EAASYIQSKFEKLN; SEQ ID NO: 18), or (.diamond.) the control Gi2 α Lys346-Phe355 peptide (KNNLKDCGLF; SEQ ID NO: 19) for 5 min under the GTPγS binding assay conditions described above, and GTPγS binding to G proteins was measured. The effect of ACGi2 on Gi2 in the absence of peptide 14 is indicated by .box-solid.. Percent stimulation of GTPγS binding was calculated by subtracting the basal fractional binding and dividing by the stimulated fractional binding observed in the absence of ACGi2. The basal fractional binding (=0%) was 0.39 mol GTPγS binding/mol Gi /5 min (5 min^-1). The 100% increase represents the GTPγS binding of 0.85 (5 min^-1). Values in all figures represent the mean ±S.E. of three experiments.
# To verify the notion that ACGi2 acts on Gi2 itself, and not on receptor sequences, two series of experiments were performed. First, the dose-response curve for peptide 14 action on Gi2 in the presence of various concentrations of ACGi2 was generated (FIG. 2A). Following incubation of 10 nM Gi2 with various concentrations of peptide 14 in the absence (.quadrature.) or presence of 10 μM (.diamond-solid.) or 30 μM (.box-solid.) ACGi2 for 5 min, GTPγS binding was assayed; fractional GTPγS binding to Gi2 is indicated in the figure.
# The second series of experiments investigated the effect of ACGi2 on lower concentrations of Gi2 that had been activated by peptide 14 to the same extent (FIG. 2B). 1 nM Gi2 was incubated for 5 min with 3 μM peptide 14 in the presence of various concentrations of ACGi2, and GTPγS binding was measured. The fractional GTPγS binding at 0% and 100% in this experiment was 0.40 and 0.55 (5 min^-1), respectively. […]
# [3] = molecular target: T1, Gi2; assay: GTPγS binding, MIII-induced Gi2 activation; settings: 10 nM Gi2, 1 μM MIII, 5 min; read-out: IC50, attenuation of MIII-induced Gi2 activation
# Method: as §1, §2
# The MIII peptide is a Gi /Go -activator region in the third intracellular loop of the G-coupled receptor termed M4 AChR (Okamoto et al., J. Biol. Chem. 267:8342-8346, 1992). […] In the experiments illustrated in FIG. 1D, 10 nM Go (.quadrature.) or Gi2 (.diamond-solid.) was incubated with 1 μM MIII for 2 or 5 min, respectively, and GTPγS binding was measured in the same manner as in FIG. 1A. […]
# T1 sequence (A7MBH9 2-355 limits assumed): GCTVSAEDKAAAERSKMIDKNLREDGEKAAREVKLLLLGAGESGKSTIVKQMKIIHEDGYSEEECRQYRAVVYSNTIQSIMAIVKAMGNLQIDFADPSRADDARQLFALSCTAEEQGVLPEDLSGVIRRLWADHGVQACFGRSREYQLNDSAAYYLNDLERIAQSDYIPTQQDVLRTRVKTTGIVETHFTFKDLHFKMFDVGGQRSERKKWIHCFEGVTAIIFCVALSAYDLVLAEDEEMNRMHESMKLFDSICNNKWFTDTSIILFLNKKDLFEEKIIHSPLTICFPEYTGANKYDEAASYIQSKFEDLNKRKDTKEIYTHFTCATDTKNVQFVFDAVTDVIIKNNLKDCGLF
# T1 sequence (P62871 2-340 partner limits assumed): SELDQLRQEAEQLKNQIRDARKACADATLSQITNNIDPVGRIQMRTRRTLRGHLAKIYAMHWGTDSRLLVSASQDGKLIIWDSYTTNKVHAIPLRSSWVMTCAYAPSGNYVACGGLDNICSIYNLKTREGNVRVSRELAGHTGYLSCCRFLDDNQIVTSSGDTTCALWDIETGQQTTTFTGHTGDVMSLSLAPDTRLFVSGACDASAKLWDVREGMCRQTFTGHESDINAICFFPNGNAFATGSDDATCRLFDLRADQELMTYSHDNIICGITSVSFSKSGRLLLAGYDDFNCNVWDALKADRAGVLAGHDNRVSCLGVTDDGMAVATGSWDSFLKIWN
# T1 sequence (P63212 2-68 partner limits assumed): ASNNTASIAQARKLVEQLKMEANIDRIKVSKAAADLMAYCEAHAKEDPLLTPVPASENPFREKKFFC
sequence,measurement,setting,value
"DAVTDVIIKNNLKDC [ACGi2, DAVTDVIIKNNLKDC]",IC50,[1],3 µM
same,IC50,"[2]; 10 nM Gi2, 30 μM peptide 14, 5 min, read-out: IC50, inhibition of peptide 14-induced GTPγS binding to Gi2",~3 µM
same,inhibition at 3 µM,"[2]; at 3 μM ACGi2 (so in the source), read-out: inhibition of stimulation of Gi2",100%
same,IC50,[3],10 µM
